US20240199623A1 (ILDONG PHARMACEUTICAL CO., LTD., priority 2020, published 2024)
pEC50: −log10 of the molar value.

Biological target: human wild type-CFTR (Homo sapiens, UniProt P13569)
Test: Cell-based YFP assay
Design: expressed in transfected cells; host or cells: CHO-K1 (Chinese hamster ovary)
Conditions: CHO-K1 cells expressing human wild type-CFTR and YFP-H148Q/I152L; forskolin 20 μM = 100% activity; read-out: Cell-based YFP Assay (EC50) Concentration Range
Protocol: Forskolin (Tocris cat. #1099), Dimethyl sulfoxide (Sigma cat. #D4540), FLUO star Omega microplate reader (BMG Labtech, Ortenberg, Germany), MARS Data Analysis Software (BMG Labtech), GraphPad Prism 5 (GraphPad Software, Inc.) Chinese hamster ovary (CHO-K1) cells expressing human wild type-CFTR and halide sensor YFP-H148Q/I152L were constructed and grown in Dulbecco's modified Eagle's medium (DMEM) supplemented with 10% FBS, 2 mM glutamine, 100 units/ml penicillin and 100 μg/ml streptomycin. Chinese hamster ovary (CHO-K1) cells expressing human wild type-CFTR and halide sensor YFP-H148Q/I152L were seeded in 96-well microplate with 2×10^4 cells/well and incubated in 37° C., 48 hours. Then, each well was washed 3 times with PBS and 100 μL PBS was added in each well. […] YFP fluorescence signal affected by I^− ion influx through CFTR channel was measured in 37° C., FLUO star Omega microplate reader according to the following steps: • i) basal 2 seconds; • ii) 140 mM I^− solution 100 μL addition to each well; • iii) YFP fluorescence signal measurement start after 6 seconds; and • iv) following 14 seconds signal detection in every 0.4 seconds periods. […] Experiments were performed in triplicates and the data was averaged. EC50 values were calculated with MARS Data Analysis Software (BMG Labtech) and GraphPad Prism 5.

human wild type-CFTR, sequence (P13569 whole entry): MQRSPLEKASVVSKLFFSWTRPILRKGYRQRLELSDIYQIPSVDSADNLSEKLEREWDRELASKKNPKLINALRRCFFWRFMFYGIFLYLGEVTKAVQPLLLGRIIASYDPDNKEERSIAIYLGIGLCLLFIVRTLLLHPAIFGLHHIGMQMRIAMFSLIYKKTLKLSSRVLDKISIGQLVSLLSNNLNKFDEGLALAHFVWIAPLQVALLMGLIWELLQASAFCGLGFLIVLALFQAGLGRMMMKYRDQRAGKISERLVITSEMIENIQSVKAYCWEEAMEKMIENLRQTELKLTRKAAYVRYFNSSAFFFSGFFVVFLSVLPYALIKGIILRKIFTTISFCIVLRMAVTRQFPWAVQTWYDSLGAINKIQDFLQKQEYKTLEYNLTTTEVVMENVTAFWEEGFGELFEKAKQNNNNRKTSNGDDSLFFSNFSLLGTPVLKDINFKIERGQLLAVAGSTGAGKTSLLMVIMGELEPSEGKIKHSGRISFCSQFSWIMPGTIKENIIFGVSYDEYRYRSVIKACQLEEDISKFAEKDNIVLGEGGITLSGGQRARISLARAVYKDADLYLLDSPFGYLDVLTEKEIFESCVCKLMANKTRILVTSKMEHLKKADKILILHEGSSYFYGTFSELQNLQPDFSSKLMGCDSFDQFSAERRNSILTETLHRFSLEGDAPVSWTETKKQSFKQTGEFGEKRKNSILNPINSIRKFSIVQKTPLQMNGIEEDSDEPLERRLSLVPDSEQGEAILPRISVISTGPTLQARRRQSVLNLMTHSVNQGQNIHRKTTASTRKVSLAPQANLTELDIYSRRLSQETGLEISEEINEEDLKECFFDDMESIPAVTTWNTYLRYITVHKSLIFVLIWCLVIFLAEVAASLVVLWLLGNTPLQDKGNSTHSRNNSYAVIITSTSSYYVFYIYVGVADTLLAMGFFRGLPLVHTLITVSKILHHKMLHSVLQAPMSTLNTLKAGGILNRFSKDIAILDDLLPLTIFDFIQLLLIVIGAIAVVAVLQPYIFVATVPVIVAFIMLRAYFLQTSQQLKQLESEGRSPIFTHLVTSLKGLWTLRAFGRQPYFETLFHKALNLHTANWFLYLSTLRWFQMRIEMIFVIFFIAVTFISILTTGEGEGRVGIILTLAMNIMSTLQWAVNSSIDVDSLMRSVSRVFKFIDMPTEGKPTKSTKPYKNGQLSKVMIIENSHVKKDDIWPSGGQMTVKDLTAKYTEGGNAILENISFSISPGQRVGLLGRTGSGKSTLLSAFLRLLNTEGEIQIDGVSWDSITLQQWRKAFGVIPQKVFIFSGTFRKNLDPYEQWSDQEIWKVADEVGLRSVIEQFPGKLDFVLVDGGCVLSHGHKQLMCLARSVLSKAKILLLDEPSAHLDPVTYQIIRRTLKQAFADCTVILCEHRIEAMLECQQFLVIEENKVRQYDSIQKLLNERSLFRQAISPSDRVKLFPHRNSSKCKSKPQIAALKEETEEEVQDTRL

Work on `COc1ccc(-c2ccnc3cc(C(=O)N4CCN(C)[C@@H](C)C4)nn23)cc1OC` [Compound 208, (S)-(7-(3,4-dimethoxyphenyl)pyrazolo [1,5-a]pyrimidin-2-yl)(3,4-dimethylpiperazin-1-yl)methanone] yielded a pEC50 of at most 5.70.

`COc1ccc(-c2ccnc3cc(C(=O)Nc4ccc(N5CCN(C(C)C)CC5)cc4)nn23)cc1OC` [Compound 266, 7-(3,4-dimethoxyphenyl)-N-(4-(4-isopropylpiperazin-1-yl)phenyl)pyrazolo[1,5-a]pyrimidine-2-carboxamide] showed a pEC50 of over 6.70.

Work on `CC[C@H]1CN(C(=O)c2cc3nccc(-c4ccc(OC)c(OC)c4)n3n2)CCN1` [Compound 371, (S)-(7-(3,4-dimethoxyphenyl)pyrazolo[1,5-a]pyrimidin-2-yl)(3-ethylpiperazin-1-yl)methanone] yielded a pEC50 of 5.70 to 6.70.

For `COc1ccc(-c2ccnc3cc(C(=O)N4CCN(C(=O)c5cccc(Cl)c5)[C@@H](C)C4)nn23)cc1OC` [Compound 261, (S)-(4-(3-chlorobenzoyl)-3-methylpiperazin-1-yl) (7-(3,4-dimethoxyphenyl)pyrazolo[1,5-a]pyrimidin-2-yl)methanone], the pEC50 was 5.70 to 6.70.

Molecule `CCOc1ccc(NC(=O)c2cc3nccc(-c4ccc(F)c(F)c4)n3n2)cc1` [Compound 293] has a pEC50 of at most 5.70.

For `COc1ccc(-c2ccnc3cc(C(=O)N4CCN(C(=O)OC(C)(C)C)C(C)(C)C4)nn23)cc1OC` [Compound 113, tert-butyl 4-(7-(3,4-dimethoxyphenyl)pyrazolo [1,5-a]pyrimidine-2-carbonyl)-2,2-dimethylpiperazine-1-carboxylate], the pEC50 was over 6.70.

In the case of `COC(=O)c1ccc(NC(=O)Nc2cc3nccc(-c4ccc(OC)c(OC)c4)n3n2)cc1` [Compound 93, methyl 4-(3-(7-(3,4-dimethoxyphenyl)pyrazolo[1,5-a]pyrimidin-2-yl)ureido)benzoate], the pEC50 was 5.70 to 6.70.

Work on `COc1ccc(-c2ccnc3cc(C(=O)Nc4ccc(C(=O)NCCO)cc4)nn23)cc1OC` [Compound 53, 7-(3,4-dimethoxyphenyl)-N-(4-((2-hydroxyethyl)carbamoyl)phenyl)pyrazolo[1,5-a] pyrimidine-2-carboxamide] yielded a pEC50 of 5.70 to 6.70.

In the case of `COC(=O)[C@@H](C)NC(=O)c1ccc(NC(=O)c2cc3nccc(-c4ccc(OC)c(OC)c4)n3n2)cc1` [Compound 64, methyl (4-(7-(3,4-dimethoxyphenyl)pyrazolo[1,5-a]pyrimidine-2-carboxamido)benzoyl)-D-alaninate], the pEC50 was over 6.70.

With `COc1ccc(-c2ccnc3cc(C(=O)N4C[C@@H](C)N(C(=O)c5ccccc5)[C@@H](C)C4)nn23)cc1OC` [Compound 363, ((3R,5S)-4-benzoyl-3,5-dimethylpiperazin-1-yl)(7-(3,4-dimethoxyphenyl)pyrazolo[1,5-a]pyrimidin-2-yl) methanone] the pEC50 was over 6.70.

`COc1ccc(-c2ccnc3cc(C(=O)N4CCN(C(=O)c5cccc(C)c5)[C@@H](C)C4)nn23)cc1OC` [Compound 369, (S)-(7-(3,4-dimethoxyphenyl)pyrazolo[1,5-a]pyrimidin-2-yl)(3-methyl-4-(3-methylbenzoyl)piperazin-1-yl)methanone] showed a pEC50 of over 6.70.

Work on `COc1ccc(-c2ccnc3cc(C(=O)N[C@H]4CC[C@H](C(=O)NC5CCN(C6CCOCC6)CC5)CC4)nn23)cc1OC` [Compound 340, 7-(3,4-dimethoxyphenyl)-N-((1R,4R)-4-((1-(tetrahydro-2H-pyran-4-yl)piperidin-4-yl)carbamoyl)cyclohexyl) pyrazolo[1,5-a] pyrimidine-2-carboxamide] yielded a pEC50 of at most 5.70.

Work on `COc1ccc(-c2ccnc3cc(C(=O)N4CCN(C(=O)c5ccccc5)[C@@H](C5CC5)C4)nn23)cc1OC` [Compound 378, (S)-(4-benzoyl-3-cyclopropylpiperazin-1-yl)(7-(3,4-dimethoxyphenyl)pyrazolo[1,5-a]pyrimidin-2-yl) methanone] yielded a pEC50 of over 6.70.

Work on `COc1ccc(C(=O)N2CCN(C(=O)c3cc4nccc(-c5ccc(OC)c(OC)c5)n4n3)C[C@@H]2C)cc1` [Compound 319, (S)-(7-(3,4-dimethoxyphenyl)pyrazolo[1,5-a]pyrimidin-2-yl)(4-(4-methoxybenzoyl)-3-methylpiperazin-1-yl) methanone] yielded a pEC50 of 5.70 to 6.70.

For `COC(=O)c1ccc(N(C)C(=O)c2cc3nccc(-c4ccc(OC)c(OC)c4)n3n2)cc1` [Compound 183, methyl 4-(7-(3,4-dimethoxyphenyl)-N-methylpyrazolo[1,5-a]pyrimidine-2-carboxamido)benzoate], the pEC50 was 5.70 to 6.70.

`COc1ccc(-c2ccnc3cc(C(=O)N4CCN(C(=O)c5ncccn5)[C@@H](C)C4)nn23)cc1OC` [Compound 383, (S)-(7-(3,4-dimethoxy-phenyl)pyrazolo[1,5-a]pyrimidin-2-yl)(3-methyl-4-(pyrimidine-2-carbonyl)piperazin-1-yl)methanone] gave a pEC50 of 5.70 to 6.70.

Work on `COc1ccc(-c2ccnc3cc(C(=O)Nc4ccc(OCC(=O)O)cc4)nn23)cc1OC` [Compound 35, 2-(4-(7-(3,4-dimethoxyphenyl)pyrazolo[1,5-a]pyrimidine-2-carboxamido)phenoxy)acetic acid] yielded a pEC50 of at most 5.70.

Work on `CCOc1ccc(NC(=O)c2cc3nccc(-c4ccc(F)c(C)c4)n3n2)cc1` [Compound 302, N-(4-ethoxyphenyl)-7-(4-fluoro-3-methylphenyl)pyrazolo [1,5-a]pyrimidine-2-carboxamide] yielded a pEC50 of at most 5.70.

`COc1ccc(-c2ccnc3cc(C(=O)NC45CC(C(=O)OCCCN6CCOCC6)(C4)C5)nn23)cc1OC` [Compound 199, 3-morpholinopropyl 3-(7-(3,4-dimethoxyphenyl)pyrazolo [1,5-a]pyrimidine-2-carboxamido)bicyclo[1.1.1] pentane-1-carboxylate] gave a pEC50 of 5.70 to 6.70.

Molecule `COc1ccc(-c2ccnc3cc(C(=O)Nc4ccc(C(=O)O)c(Cl)c4)nn23)cc1OC` [Compound 279, 2-chloro-4-(7-(3,4-dimethoxyphenyl)pyrazolo [1,5-a]pyrimidine-2-carboxamido)benzoic acid] has a pEC50 of at most 5.70.

`COc1ccc(-c2ccnc3cc(C(=O)N(C)c4ccc(C(=O)N5CCN(C)CC5)cc4)nn23)cc1OC` [Compound 248, 7-(3,4-dimethoxyphenyl)-N-methyl-N-(4-(4-methylpiperazine-1-carbonyl)phenyl)pyrazolo [1,5-a]pyrimidine-2-carboxamide] gave a pEC50 of at most 5.70.

Molecule `COc1ccc(-c2ccnc3cc(C(=O)N4CCN(C(C)C)CC4)nn23)cc1OC` [Compound 179, (7-(3,4-dimethoxyphenyl)pyrazolo[1,5-a]pyrimidin-2-yl)(4-isopropylpiperazin-1-yl)methanone] has a pEC50 of at most 5.70.

With `COc1ccc(-c2ccnc3cc(C(=O)N4CCN(C(=O)c5ccccc5Cl)[C@@H](C)C4)nn23)cc1OC` [Compound 260, (S)-(4-(2-chlorobenzoyl)-3-methylpiperazin-1-yl) (7-(3,4-dimethoxyphenyl)pyrazolo[1,5-a]pyrimidin-2-yl)methanone] the pEC50 was 5.70 to 6.70.

Molecule `COc1ccc(-c2ccnc3cc(C(=O)Nc4ccc(N(C)C)cn4)nn23)cc1OC` [Compound 312, 7-(3,4-dimethoxyphenyl)-N-(5-(dimethylamino)pyridin-2-yl)pyrazolo [1,5-a]pyrimidine-2-carboxamide] has a pEC50 of over 6.70.

Work on `Cc1cccc(-c2ccnc3cc(C(=O)Nc4ccc(N5CCOCC5)cn4)nn23)c1` [Compound 306, N-(5-morpholinopyridin-2-yl)-7-(m-tolyl)pyrazolo[1,5-a] pyrimidine-2-carboxamide] yielded a pEC50 of at most 5.70.

Molecule `COc1ccc(-c2ccnc3cc(C(=O)Nc4ccc(C(=O)NCCCN(C)C)cc4)nn23)cc1OC` [Compound 220, 7-(3,4-dimethoxyphenyl)-N-(4-((3-(dimethylamino)propyl)carbamoyl)phenyl) pyrazolo[1,5-a]pyrimidine-2-carboxamide] has a pEC50 of at most 5.70.

With `COC(=O)c1ccc(NC(=O)c2cc3nccc(-c4ccc5c(c4)OCCO5)n3n2)cc1` [Compound 70, methyl 4-(7-(2,3-dihydrobenzo[b][1,4]dioxin-6-yl)pyrazolo[1,5-a]pyrimidine-2-carboxamido)benzoate] the pEC50 was at most 5.70.

`COc1ccc(-c2ccnc3cc(C(=O)Nc4cc(C(F)(F)F)cc(C(F)(F)F)c4)nn23)cc1OC` [Compound 291, N-(3,5-bis(trifluoromethyl)phenyl)-7-(3,4-dimethoxyphenyl)pyrazolo [1,5-a]pyrimidine-2-carboxamide] gave a pEC50 of at most 5.70.

`CCOc1ccc(NC(=O)c2cc3nccc(-c4ccc(OC(F)(F)F)c(Cl)c4)n3n2)cc1` [Compound 298, 7-(3-chloro-4-(trifluoromethoxy)phenyl)-N-(4-ethoxyphenyl)pyrazolo [1,5-a]pyrimidine-2-carboxamide] showed a pEC50 of at most 5.70.

With `CCOC(=O)C1(NC(=O)c2cc3nccc(-c4ccc(OC)c(OC)c4)n3n2)CC1` [Compound 26, ethyl 1-(7-(3,4-dimethoxyphenyl)pyrazolo [1,5-a]pyrimidine-2-carboxamido) cyclopropane-1-carboxylate] the pEC50 was 5.70 to 6.70.

`COc1ccc(-c2ccnc3cc(C(=O)Nc4ccc5c(ccn5C)c4)nn23)cc1OC` [Compound 309, 7-(3,4-dimethoxyphenyl)-N-(1-methyl-1H-indol-5-yl)pyrazolo [1,5-a]pyrimidine-2-carboxamide] showed a pEC50 of over 6.70.
